The test system of test [1] is SKBR3 (PI3Kα-Wild Type) cell line. Description: HTRF phospho-AKT(S473) cell assay in SKBR3 cells. In kind it is cell-based, human. The following applies: Homo sapiens, SK-BR-3, 2 hours compound incubation, PDGF-BB stimulated. In a few lines: (§1)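 HTRF read-out of phospho-AKT(S473) in lysates gave IC50 values after 2 h compound exposure at 37° C. Dose series was 12 points at 1:3, topping at 5 μM for T47D and 10 μM for SKBR3. Only SKBR3 received 70 ng/ml PDGF-BB during the last 15 minutes.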
For orientation: TR-FRET usually uses a lanthanide donor and a delayed reading to cut background.

For test [2], the system named is T47D (PI3Kα-H1047R) cell line. Description: HTRF phospho-AKT(S473) cell assay in T47D cells. It is filed as cell-based, human. Conditions: Homo sapiens, 2 hours compound incubation. In a few lines:
as §1

The mark [3] stands for this setting: HTRF phospho-AKT(S473), SKBR3 (PI3Kα-Wild Type) cells.
Setting [4] is: HTRF phospho-AKT(S473), T47D (PI3Kα-H1047R) cells.
Where [5] appears, read: SKBR3 (PI3Kα-Wild Type) cell line, phospho-AKT(S473) HTRF.
[6] abbreviates: T47D (PI3Kα-H1047R) cell line, phospho-AKT(S473) HTRF.

Drawing on US12281122B1, “PI3K inhibitors” (Cogent Biosciences, Inc., priority 2023, dated 2025), this text covers IC50 for 20 compounds.

As a reminder, the IC50 is the concentration at which inhibition is half-maximal.

As for `Cc1cc([C@@H](C)Nc2ccc(Cl)nc2C(=O)NS(C)(=O)=O)c2nc(-c3cc(F)c4cn(C)nc4c3)n(C)c(=O)c2c1` [Compound 824, (R)-6-chloro-3-((1-(2-(4-fluoro-2-methyl-2H-indazol-6-yl)-3,6-dimethyl-4-oxo-3,4-dihydroquinazolin-8-yl)ethyl)amino)-N-(methylsulfonyl) picolinamide], the IC50 was 1000 to 5000 nM in test [1] (setting [3]) and under 250 nM in test [2] (setting [4]).
In the case of `Cc1cc([C@@H](C)Nc2ccc(Cl)nc2C(=O)NS(C)(=O)=O)c2nc([C@H]3[C@@H]4CN(c5ncc(Cl)cn5)C[C@@H]43)n(C)c(=O)c2c1` [Compound 825, 6-chloro-3-(((R)-1-(2-((1R,5S,6r)-3-(5-chloropyrimidin-2-yl)-3-azabicyclo[3.1.0]hexan-6-yl)-3,6-dimethyl-4-oxo-3,4-dihydroquinazolin-8-yl)ethyl)amino)-N-(methylsulfonyl) picolinamide], the results for the 50% inhibitory concentration (IC50) in test [1] (setting [3]) and in test [2] (setting [4]) were at least 5000 nM and 1000 to 5000 nM, respectively.
On to `Cc1cc([C@@H](C)Nc2ccc(Cl)nc2C(=O)NS(C)(=O)=O)c2nc([C@H]3[C@@H]4CN(c5nccc(C)n5)C[C@@H]43)n(C)c(=O)c2c1` [Compound 826, 6-chloro-3-(((R)-1-(3,6-dimethyl-2-((1R,5S,6r)-3-(4-methylpyrimidin-2-yl)-3-azabicyclo[3.1.0]hexan-6-yl)-4-oxo-3,4-dihydroquinazolin-8-yl)ethyl)amino)-N-(methylsulfonyl) picolinamide], for which the IC50 in test [1] (setting [3]) was at least 5000 nM; in test [2] (setting [4]), 250 to 500 nM.
With `Cc1cc([C@@H](C)Nc2ccc(Cl)nc2C(=O)NS(C)(=O)=O)c2nc([C@H]3[C@@H]4CN(c5ncc(F)cn5)C[C@@H]43)n(C)c(=O)c2c1` [Compound 827, 6-chloro-3-(((R)-1-(2-((1R,5S,6r)-3-(5-fluoropyrimidin-2-yl)-3-azabicyclo[3.1.0]hexan-6-yl)-3,6-dimethyl-4-oxo-3,4-dihydroquinazolin-8-yl)ethyl)amino)-N-(methylsulfonyl) picolinamide], the results for the IC50 in test [1] (setting [3]) and in test [2] (setting [4]) were at least 5000 nM and 500 to 1000 nM, respectively.
In the same order, the values of `Cc1cc([C@@H](C)Nc2ccc(Cl)nc2C(=O)NS(C)(=O)=O)c2nc([C@H]3[C@@H]4CN(c5cnc(C)c(F)c5)C[C@@H]43)n(C)c(=O)c2c1` [Compound 828, 6-chloro-3-(((R)-1-(2-((1R,5S,6r)-3-(5-fluoro-6-methylpyridin-3-yl)-3-azabicyclo[3.1.0]hexan-6-yl)-3,6-dimethyl-4-oxo-3,4-dihydroquinazolin-8-yl)ethyl)amino)-N-(methylsulfonyl) picolinamide] are at least 5000 nM and 500 to 1000 nM.
`Cc1cc([C@@H](C)Nc2ccc(Cl)nc2C(=O)NS(C)(=O)=O)c2nc([C@H]3[C@@H]4CN(c5ccc(C)nc5)C[C@@H]43)n(C)c(=O)c2c1` [Compound 829, 6-chloro-3-(((R)-1-(3,6-dimethyl-2-((1R,5S,6r)-3-(6-methylpyridin-3-yl)-3-azabicyclo[3.1.0]hexan-6-yl)-4-oxo-3,4-dihydroquinazolin-8-yl)ethyl)amino)-N-(methylsulfonyl) picolinamide]: the IC50 in test [1] (setting [3]) is at least 5000 nM; in test [2] (setting [4]) it was 250 to 500 nM.
Regarding `Cc1cc([C@@H](C)Nc2ccc(Cl)nc2C(=O)NS(C)(=O)=O)c2nc(C3(c4ccccc4)CC3)n(C)c(=O)c2c1` [Compound 830, (R)-6-chloro-3-((1-(3,6-dimethyl-4-oxo-2-(1-phenylcyclopropyl)-3,4-dihydroquinazolin-8-yl)ethyl)amino)-N-(methylsulfonyl) picolinamide], the half-inhibitory concentration (IC50) in test [1] (setting [3]) was at least 5000 nM; in test [2] (setting [4]), 250 to 500 nM.
`Cc1cc([C@@H](C)Nc2ccc(Cl)nc2C(=O)NS(C)(=O)=O)c2nc(C3CCN(c4ccccc4)CC3)n(C)c(=O)c2c1` [Compound 831, (R)-6-chloro-3-((1-(3,6-dimethyl-4-oxo-2-(1-phenylpiperidin-4-yl)-3,4-dihydroquinazolin-8-yl)ethyl)amino)-N-(methylsulfonyl) picolinamide]: the figures for the IC50 in test [1] (setting [3]) and in test [2] (setting [4]) were 1000 to 5000 nM and 250 to 500 nM, respectively.
For `Cc1cc([C@@H](C)Nc2ccc(Cl)nc2C(=O)NS(C)(=O)=O)c2nc(-c3ccc4[nH]ncc4c3)n(C)c(=O)c2c1` [Compound 832, (R)-3-((1-(2-(1H-indazol-5-yl)-3,6-dimethyl-4-oxo-3,4-dihydroquinazolin-8-yl)ethyl)amino)-6-chloro-N-(methylsulfonyl) picolinamide], the IC50 in test [1] (setting [3]) is 1000 to 5000 nM; in test [2] (setting [4]), 250 to 500 nM.
Take `Cc1cc([C@@H](C)Nc2ccc(Cl)nc2C(=O)NS(C)(=O)=O)c2nc(-c3ccc4c(c3)ncn4C)n(C)c(=O)c2c1` [Compound 833, (R)-6-chloro-3-((1-(3,6-dimethyl-2-(1-methyl-1H-benzo[d]imidazol-5-yl)-4-oxo-3,4-dihydroquinazolin-8-yl)ethyl)amino)-N-(methylsulfonyl) picolinamide]: the IC50 in test [1] (setting [3]) lay in the range of 1000 to 5000 nM; in test [2] (setting [4]), 250 to 500 nM.
Turning to `Cc1cc([C@@H](C)Nc2ccc(Cl)nc2C(=O)NS(C)(=O)=O)c2nc(-c3ccc4cn[nH]c4c3)n(C)c(=O)c2c1` [Compound 834, (R)-3-((1-(2-(1H-indazol-6-yl)-3,6-dimethyl-4-oxo-3,4-dihydroquinazolin-8-yl)ethyl)amino)-6-chloro-N-(methylsulfonyl) picolinamide], the values for the IC50 in test [1] (setting [3]) and in test [2] (setting [4]) were 1000 to 5000 nM and 500 to 1000 nM, respectively.
In the case of `Cc1cc([C@@H](C)Nc2ccc(Cl)nc2C(=O)NS(C)(=O)=O)c2nc(-c3ccc4cn(C)nc4c3)n(C)c(=O)c2c1` [Compound 835, (R)-6-chloro-3-((1-(3,6-dimethyl-2-(2-methyl-2H-indazol-6-yl)-4-oxo-3,4-dihydroquinazolin-8-yl)ethyl)amino)-N-(methylsulfonyl) picolinamide], the IC50 in test [1] (setting [3]) fell in the range of 1000 to 5000 nM; in test [2] (setting [4]), 250 to 500 nM.
With `Cc1cc([C@@H](C)Nc2ccc(Cl)nc2C(=O)NS(C)(=O)=O)c2nc(-c3ccc4nn(C(F)F)cc4c3)n(C)c(=O)c2c1` [Compound 836, (R)-6-chloro-3-((1-(2-(2-(difluoromethyl)-2H-indazol-5-yl)-3,6-dimethyl-4-oxo-3,4-dihydroquinazolin-8-yl)ethyl)amino)-N-(methylsulfonyl) picolinamide], the IC50 was 1000 to 5000 nM in test [1] (setting [3]) and under 250 nM in test [2] (setting [4]).
In the same order, the values of `Cc1cc([C@@H](C)Nc2ccc(Cl)nc2C(=O)NS(C)(=O)=O)c2nc(C3CCN(c4ncc(C#N)cc4C)CC3)n(C)c(=O)c2c1` [Compound 837, (R)-6-chloro-3-((1-(2-(1-(5-cyano-3-methylpyridin-2-yl)piperidin-4-yl)-3,6-dimethyl-4-oxo-3,4-dihydroquinazolin-8-yl)ethyl)amino)-N-(methylsulfonyl) picolinamide] are 1000 to 5000 nM and 250 to 500 nM.
Take `Cc1cc([C@@H](C)Nc2ccc(Cl)nc2C(=O)NS(C)(=O)=O)c2nc(-c3ccc(-c4ccn(C)n4)cn3)n(C)c(=O)c2c1` [Compound 838, (R)-6-chloro-3-((1-(3,6-dimethyl-2-(5-(1-methyl-1H-pyrazol-3-yl)pyridin-2-yl)-4-oxo-3,4-dihydroquinazolin-8-yl)ethyl)amino)-N-(methylsulfonyl) picolinamide]: the IC50 lay in the range of 1000 to 5000 nM in test [1] (setting [3]) and 250 to 500 nM in test [2] (setting [4]).
With `Cc1cc([C@@H](C)Nc2ccc(Cl)nc2C(=O)NS(C)(=O)=O)c2nc(-c3cc4cn(C)nc4cn3)n(C)c(=O)c2c1` [Compound 839, (R)-6-chloro-3-((1-(3,6-dimethyl-2-(2-methyl-2H-pyrazolo[3,4-c]pyridin-5-yl)-4-oxo-3,4-dihydroquinazolin-8-yl)ethyl)amino)-N-(methylsulfonyl) picolinamide], the IC50 in test [1] (setting [3]) lay within 1000 to 5000 nM; in test [2] (setting [4]), 250 to 500 nM.
Turning to `Cc1cc2c(=O)n(C)c(-c3ccc4nn(C)cc4c3)nc2c([C@@H](C)Nc2ccc(Cl)nc2C(=O)NS(C)(=O)=O)n1` [Compound 840, (R)-6-chloro-3-((1-(3,6-dimethyl-2-(2-methyl-2H-indazol-5-yl)-4-oxo-3,4-dihydropyrido[3,4-d]pyrimidin-8-yl)ethyl)amino)-N-(methylsulfonyl) picolinamide], the IC50 in test [1] (setting [5]) and in test [2] (setting [6]) was 1000 to 5000 nM each time.
For the compound `Cc1cc([C@@H](C)Nc2ccc(Cl)nc2C(=O)NS(C)(=O)=O)c2nc(-c3ccc4nn(C)cc4n3)n(C)c(=O)c2c1` [Compound 841, (R)-6-chloro-3-((1-(3,6-dimethyl-2-(2-methyl-2H-pyrazolo [4,3-b]pyridin-5-yl)-4-oxo-3,4-dihydroquinazolin-8-yl)ethyl)amino)-N-(methylsulfonyl) picolinamide], the half-maximal inhibitory concentration (IC50) in test [1] (setting [5]) was in the range of 1000 to 5000 nM; in test [2] (setting [6]) it was 250 to 500 nM.
`Cc1cc([C@@H](C)Nc2ccc(Cl)nc2C(=O)NS(C)(=O)=O)c2nc(-c3ccc4nn(C)c(C)c4c3)n(C)c(=O)c2c1` [Compound 842, (R)-6-chloro-3-((1-(2-(2,3-dimethyl-2H-indazol-5-yl)-3,6-dimethyl-4-oxo-3,4-dihydroquinazolin-8-yl)ethyl)amino)-N-(methylsulfonyl) picolinamide]: the figures for the IC50 in test [1] (setting [5]) and in test [2] (setting [6]) were 1000 to 5000 nM and under 250 nM, respectively.
In the case of `Cc1cc([C@@H](C)Nc2ccc(Cl)nc2C(=O)NS(C)(=O)=O)c2nc(-c3ccc(-c4nc(C)no4)nc3)n(C)c(=O)c2c1` [Compound 843, (R)-6-chloro-3-((1-(3,6-dimethyl-2-(6-(3-methyl-1,2,4-oxadiazol-5-yl)pyridin-3-yl)-4-oxo-3,4-dihydroquinazolin-8-yl)ethyl)amino)-N-(methylsulfonyl) picolinamide], the figures for the IC50 in test [1] (setting [5]) and in test [2] (setting [6]) were 1000 to 5000 nM and 250 to 500 nM, respectively.
